21 compounds from patent US12410164B2, “Heterocyclic compounds and medical use thereof” (FONDAZIONE TELETHON, priority 2018, dated 2025) can be followed below.

The experiment deals with F508del-CFTR (Homo sapiens, UniProt P13569, DEL508-508). The experiment in a line: HS-YFP kinetic fluorescence (iodide quenching rate) assay in CFBE41o− cells. Set-up: expressed in transfected cells; host or cells: CFBE41o- cells with expression of F508del-CFTR and HS-YFP (generated as in Sondo et al. 2011). Type of experiment: cell-based. As to conditions: for AI additivity index: Table 1a; for AI additivity index / AI (%) additivity index: compound at 10 μM plus VX-809, (QRTOT − QRVX)/QRVX; for structure-activity comparison of corrector potency/activity: relative to the analogue; for AI (%) additivity index: Table 1, HS-YFP assay. Here is the method:
CFBE41o- cells, with expression of F508del-CFTR and halogen-sensitive fluorescent protein, were generated as previously described (Sondo E, et al. Am J Physiol. 2011, 301, […]-[…]). For the test, the cells were seeded in 96-well microplates using a culture medium consisting of DMEM and Ham's F12 (1:1) supplemented with 10% foetal bovine serum. After 24 hours from seeding, the cells were treated for another 24 hours with the test compounds dissolved in the culture medium at the desired concentrations. As a negative control, the solvent of the compounds (dimethyl sulfoxide, DMSO) dissolved in the medium with the same dilution ratio (final percentage of DMSO:0.1-0.2%) was used. As a positive control, the corrector VX-809 (Selleck Chemicals, […]) was used at a concentration of 1 μM. After treatment, the medium with the compounds was removed and the cells were stimulated with forskolin (Sigma-Aldrich, F6886) 20 μM plus genistein (Sigma-Aldrich, G6649) 50 μM (in 60 μl of PBS saline) to maximally activate the CFTR channels present in the membrane. In a microplate reader (FLUOstar-Omega, BMG) the fluorescence of the cells in each well was read for 14 seconds, with an injection of 165 μl of a iodide-enriched saline (modified PBS where NaCl, 137 mM, has been replaced with the same concentration of NaI). The iodide transport activity in each well was evaluated by subtraction of the background fluorescence (measured in a well without cells), subsequent normalization with respect to the initial fluorescence and finally by interpolation of the fluorescence quenching phase with an exponential function that allows the derivation of the maximum slope (quenching rate, QR). The activity of the synthesized compounds was initially evaluated on the CFBE41o- cell line with expression of the mutated F508del-CFTR protein described above (Sondo E, et al. Am J Physiol. 2011, 301, […]-[…]). For this purpose, a functional assay based on the fluorescent YFP protein sensitive to halides, HS-YFP, was used (Galietta L J, et al. J Biol Chem. 2001, 276, 19723-19728). The fluorescence of the HS-YFP protein is turned off by iodide. Therefore, if exposed to a solution containing iodide, cells with HS-YFP expression show a quenching speed of the fluorescence which depends on the presence and activity of anionic channels. Under control conditions, the mutated CFTR protein presents a serious defect of stability and maturation, so it remains trapped in the endoplasmic reticulum not reaching the cell surface in enough quantity. In the HS-YFP-based assay, this defect results in a low anion transport capacity and therefore in a low quenching rate (QR). Treatment for a prolonged time (e.g. 24 hours) with a corrector determines an improvement in protein maturation with an increase in the number of CFTR channels present in the membrane and therefore an increase in the flux of iodide and QR. In a first phase, the authors screened about 200 heterocyclic molecules with various nitrogenated tricyclic scaffolds. Conditions previously described have been used for screening (Sondo E, et al. Am J Physiol. 2011, 301, […]-[…]) and reported herein in the Materials and Methods section. A threshold equal to the average value plus three times the standard deviation of the QR of wells without compounds (only DMSO in the culture medium) was used as a criterion for the selection of active compounds.

The structures appear in SMILES notation.

Sequence of F508del-CFTR (P13569 with tags, fused parts or gaps DEL508-508): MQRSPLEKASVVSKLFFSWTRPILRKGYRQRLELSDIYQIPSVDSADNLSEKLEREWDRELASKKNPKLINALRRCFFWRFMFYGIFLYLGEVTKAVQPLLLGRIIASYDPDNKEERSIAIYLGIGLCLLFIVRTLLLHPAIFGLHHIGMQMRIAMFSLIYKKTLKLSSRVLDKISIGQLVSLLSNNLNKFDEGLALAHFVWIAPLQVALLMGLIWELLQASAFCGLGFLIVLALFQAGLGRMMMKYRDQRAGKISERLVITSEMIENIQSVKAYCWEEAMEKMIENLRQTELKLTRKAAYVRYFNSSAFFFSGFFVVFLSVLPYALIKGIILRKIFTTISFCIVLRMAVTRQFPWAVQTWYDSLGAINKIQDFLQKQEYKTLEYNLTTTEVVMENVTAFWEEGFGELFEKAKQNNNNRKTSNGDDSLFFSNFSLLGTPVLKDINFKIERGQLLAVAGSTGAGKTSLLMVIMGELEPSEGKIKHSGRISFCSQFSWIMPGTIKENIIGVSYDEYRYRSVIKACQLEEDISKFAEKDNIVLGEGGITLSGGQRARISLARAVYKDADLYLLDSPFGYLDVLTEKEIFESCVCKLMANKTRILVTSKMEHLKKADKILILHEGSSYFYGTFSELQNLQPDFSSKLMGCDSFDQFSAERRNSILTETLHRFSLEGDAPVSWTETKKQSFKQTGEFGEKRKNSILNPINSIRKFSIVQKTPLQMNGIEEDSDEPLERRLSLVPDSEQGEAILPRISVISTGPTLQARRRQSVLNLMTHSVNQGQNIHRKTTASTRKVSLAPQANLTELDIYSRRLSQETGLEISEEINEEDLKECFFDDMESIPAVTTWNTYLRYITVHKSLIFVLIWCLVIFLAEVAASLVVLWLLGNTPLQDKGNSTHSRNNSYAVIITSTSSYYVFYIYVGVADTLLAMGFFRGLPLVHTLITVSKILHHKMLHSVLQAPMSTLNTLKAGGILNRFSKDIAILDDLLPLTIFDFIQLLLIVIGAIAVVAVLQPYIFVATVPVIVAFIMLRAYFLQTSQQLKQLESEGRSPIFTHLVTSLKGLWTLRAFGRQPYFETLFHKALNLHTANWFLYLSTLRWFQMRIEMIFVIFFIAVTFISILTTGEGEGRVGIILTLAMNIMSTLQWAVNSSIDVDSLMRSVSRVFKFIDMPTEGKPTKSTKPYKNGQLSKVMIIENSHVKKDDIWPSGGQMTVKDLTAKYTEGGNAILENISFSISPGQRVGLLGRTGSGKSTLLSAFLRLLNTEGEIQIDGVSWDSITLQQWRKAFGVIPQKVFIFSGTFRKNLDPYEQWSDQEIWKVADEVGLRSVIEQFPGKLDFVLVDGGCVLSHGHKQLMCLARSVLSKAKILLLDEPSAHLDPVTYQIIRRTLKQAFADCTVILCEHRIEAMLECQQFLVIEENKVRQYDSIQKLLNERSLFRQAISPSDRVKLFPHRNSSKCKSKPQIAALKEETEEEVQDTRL

Consider `CCOC(=O)c1c(Br)c2ccc3cc(S(=O)(=O)c4ccccc4)c(=O)[nH]c3c2n1Cc1ccc(C)cc1` [13 (PP057), Ethyl 7-(benzenesulfonyl)-3-bromo-1-[(4-methylphenyl)methyl]-8-oxo-8,9-dihydro-1H-pyrrolo[3,2-h]quinoline-2-carboxylate], for which the AI additivity index is recorded as 272% and the “structure-activity comparison of corrector potency/activity” value is given as “Increased activity”.
As to `CCOC(=O)c1cc2ccc3cc(S(=O)(=O)c4ccccc4)c(=O)[nH]c3c2n1Cc1ccc(C)cc1` [14 (PP058), Ethyl 1-(4-methylbenzyl)-8-oxo-7-(phenylsulfonyl)-8,9-dihydro-1H-pyrrolo[3,2-h]quinoline-2-carboxylate], the AI additivity index was found to be 177%.
As to `CCOC(=O)c1cc2c(n1Cc1ccc(C)cc1)-c1[nH]c(=O)c(S(=O)(=O)c3ccccc3)cc1CC2` [PP007], the “AI (%) additivity index” value was determined as 169%. Further, the “AI additivity index in the example of FIG. 1” value (10 μM, with VX-809 1 μM, 24 h) is recorded as 74%. Besides, the “F508del-CFTR activity (quenching rate) versus DMSO control” value (compound alone, 24 h treatment) is given as “significant increase in F508del-CFTR activity”. For the same compound, the “F508del-CFTR activity (quenching rate) of combination with VX-809” value (compound plus VX-809 1 μM, 24 h) is listed as “greater than the sum of the single effects”. The “screening outcome (QR above mean plus three SD of DMSO wells)” value (screen of about 200 heterocyclic molecules) was “active”.
Turning to `CCOC(=O)c1cc2c(n1C)-c1[nH]c(=O)c(S(=O)(=O)c3ccccc3)cc1CC2` [PP010], the “AI (%) additivity index” value turned out to be 95% and the “structure-activity comparison of corrector potency/activity” value is “causes a reduction in activity”.
In the same order, the values of `CCOC(=O)c1cc2c(n1Cc1ccccc1)-c1[nH]c(=O)c(S(=O)(=O)c3ccccc3)cc1CC2` [PP011] are 150% and “causes a reduction in activity”.
As to `CCOC(=O)c1cc2c(n1Cc1ccccc1C)-c1[nH]c(=O)c(S(=O)(=O)c3ccccc3)cc1CC2` [PP015, Ethyl 1-(2-methylbenzyl)-8-oxo-7-(phenylsulfonyl)-4,5,8,9-tetrahydro-1H-pyrrolo[3,2-h]quinoline-2-carboxylate], the “AI (%) additivity index” value amounted to 124%.
On the same count and under the same terms, under `CCOC(=O)c1cc2c(n1Cc1cccc(C)c1)-c1[nH]c(=O)c(S(=O)(=O)c3ccccc3)cc1CC2` [PP016, Ethyl 1-(3-methylbenzyl)-8-oxo-7-(phenylsulfonyl)-4,5,8,9-tetrahydro-1H-pyrrolo[3,2-h]quinoline-2-carboxylate] stands 42%; under `CCOC(=O)c1cc2c(n1Cc1ccc(Cl)cc1)-c1[nH]c(=O)c(S(=O)(=O)c3ccccc3)cc1CC2` [PP017, Ethyl 1-(4-chlorobenzyl)-8-oxo-7-(phenylsulfonyl)-4,5,8,9-tetrahydro-1H-pyrrolo[3,2-h]quinoline-2-carboxylate], 203%.
The same measure, in the same setting: under `COC(=O)c1cc2c(n1Cc1ccc(C)cc1)-c1[nH]c(=O)c(S(=O)(=O)c3ccccc3)cc1CC2` [PP019, Methyl 1-(4-methylbenzyl)-8-oxo-7-(phenylsulfonyl)-4,5,8,9-tetrahydro-1H-pyrrolo[3,2-h]quinoline-2-carboxylate] stands 29%; under `COC(=O)c1cc2c(n1Cc1ccccc1C)-c1[nH]c(=O)c(S(=O)(=O)c3ccccc3)cc1CC2` [PP020, Methyl 1-(2-methylbenzyl)-8-oxo-7-(phenylsulfonyl)-4,5,8,9-tetrahydro-1H-pyrrolo[3,2-h]quinoline-2-carboxylate], 33%.
Regarding `CCOC(=O)c1cc2c(n1Cc1ccc(C)cc1C)-c1[nH]c(=O)c(S(=O)(=O)c3ccccc3)cc1CC2` [PP021, Ethyl 7-(benzenesulfonyl)-1-[(2,4-dimethylphenyl)methyl]-8-oxo-4,5,8,9-tetrahydro-1H-pyrrolo[3,2-h]quinoline-2-carboxylate], the “AI (%) additivity index” value is reported as 40%.
Still for that read-out and setting: the result for `Cc1ccc(Cn2c(C(=O)OC(C)C)cc3c2-c2[nH]c(=O)c(S(=O)(=O)c4ccccc4)cc2CC3)cc1` [PP022, Propan-2-yl 7-(benzenesulfonyl)-1-[(4-methylphenyl)methyl]-8-oxo-4,5,8,9-tetrahydro-1H-pyrrolo[3,2-h]quinoline-2-carboxylate] reads 279%; that for `CCOC(=O)c1cc2c(n1Cc1ccc(C)cc1)-c1[nH]c(=O)c(S(=O)(=O)c3ccc(C)cc3)cc1CC2` [PP023, Ethyl 7-(4-methylbenzene-1-sulfonyl)-1-[(4-methylphenyl)methyl]-8-oxo-4,5,8,9-tetrahydro-1H-pyrrolo[3,2-h]quinoline-2-carboxylate], 89%.
The same measure, in the same setting: under `CCOC(=O)c1cc2c(n1Cc1ccc(C)cc1)-c1[nH]c(=O)c(S(C)(=O)=O)cc1CC2` [PP024, Ethyl 7-(metansulfonyl)-1-[(4-methylphenyl)methyl]-8-oxo-4,5,8,9-tetrahydro-1H-pyrrolo[3,2-h]quinoline-2-carboxylate] stands 11%.
Same read-out and setting: under `CCOC(=O)c1cc2c(n1Cc1ccc(C)c(C)c1)-c1[nH]c(=O)c(S(=O)(=O)c3ccccc3)cc1CC2` [PP025, Ethyl 7-(benzenesulfonyl)-1-[(3,4-dimethylphenyl)methyl]-8-oxo-4,5,8,9-tetrahydro-1H-pyrrolo[3,2-h]quinoline-2-carboxylate] stands 178%.
Consider `CCOC(=O)c1c(Br)c2c(n1Cc1ccccc1C)-c1[nH]c(=O)c(S(=O)(=O)c3ccccc3)cc1CC2` [PP027, Ethyl 3-bromo 1-(2-methylbenzyl)-8-oxo-7-(phenylsulfonyl)-4,5,8,9-tetrahydro-1H-pyrrolo[3,2-h]quinoline-2-carboxylate], for which the “AI (%) additivity index” value amounted to 185% and the “structure-activity comparison of corrector potency/activity” value was “potency comparable to that of PP008”.
With `CCOC(=O)c1c(Br)c2c(n1Cc1ccc(Cl)cc1)-c1[nH]c(=O)c(S(=O)(=O)c3ccccc3)cc1CC2` [PP029, Ethyl 3-bromo 1-(4-chlorobenzyl)-8-oxo-7-(phenylsulfonyl)-4,5,8,9-tetrahydro-1H-pyrrolo[3,2-h]quinoline-2-carboxylate], the “AI (%) additivity index” value is given as 46%.
Consider `CCOC(=O)c1c(Br)c2c(n1Cc1cccc(C)c1)-c1[nH]c(=O)c(S(=O)(=O)c3ccc(Cl)cc3)cc1CC2` [PP030, Ethyl 3-bromo-7-[(4-chlorophenyl)sulfonyl]-1-(3-methylbenzyl)-8-oxo-4,5,8,9-tetrahydro-1H-pyrrolo[3,2-h]quinoline-2-carboxylate], for which the “AI (%) additivity index” value is recorded as 96%.
Turning to `COC(=O)c1c(Br)c2c(n1Cc1ccc(C)cc1)-c1[nH]c(=O)c(S(=O)(=O)c3ccccc3)cc1CC2` [PP031, Methyl 3-bromo-1-(4-methylbenzyl)-8-oxo-7-(phenylsulfonyl)-4,5,8,9-tetrahydro-1H-pyrrolo[3,2-h]quinoline-2-carboxylate], the “AI (%) additivity index” value was 39%.
On the same count and under the same terms, under `COC(=O)c1c(Br)c2c(n1Cc1ccccc1C)-c1[nH]c(=O)c(S(=O)(=O)c3ccccc3)cc1CC2` [PP032, Methyl 3-bromo-1-(2-methylbenzyl)-8-oxo-7-(phenylsulfonyl)-4,5,8,9-tetrahydro-1H-pyrrolo[3,2-h]quinoline-2-carboxylate] stands 133%.
As for `CCOC(=O)c1c(Br)c2c(n1Cc1ccc(C)cc1C)-c1[nH]c(=O)c(S(=O)(=O)c3ccccc3)cc1CC2` [PP033, Ethyl 7-(benzenesulfonyl)-3-bromo-1-[(2,4-dimethylphenyl)methyl]-8-oxo-4,5,8,9-tetrahydro-1H-pyrrolo[3,2-h]quinoline-2-carboxylate], the “AI (%) additivity index” value was determined as 114% and the “structure-activity comparison of corrector potency/activity” value is “reduction in activity compared to PP008”.
